Data: PMC8755628 (Pharmacological research, 2021)

Biological target: MET (Homo sapiens, UniProt P08581)
Experiment: MET kinase assay
Type: biochemical

Chain of MET (P08581 25-307): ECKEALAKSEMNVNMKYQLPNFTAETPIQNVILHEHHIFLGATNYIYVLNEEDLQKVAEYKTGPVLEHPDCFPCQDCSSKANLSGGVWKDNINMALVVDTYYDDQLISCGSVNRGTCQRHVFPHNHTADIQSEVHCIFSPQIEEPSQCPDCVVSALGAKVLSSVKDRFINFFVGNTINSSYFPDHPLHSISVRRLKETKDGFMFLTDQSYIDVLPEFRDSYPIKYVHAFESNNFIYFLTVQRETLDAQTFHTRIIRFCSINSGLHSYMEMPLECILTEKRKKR
Chain of MET (P08581 308-1390): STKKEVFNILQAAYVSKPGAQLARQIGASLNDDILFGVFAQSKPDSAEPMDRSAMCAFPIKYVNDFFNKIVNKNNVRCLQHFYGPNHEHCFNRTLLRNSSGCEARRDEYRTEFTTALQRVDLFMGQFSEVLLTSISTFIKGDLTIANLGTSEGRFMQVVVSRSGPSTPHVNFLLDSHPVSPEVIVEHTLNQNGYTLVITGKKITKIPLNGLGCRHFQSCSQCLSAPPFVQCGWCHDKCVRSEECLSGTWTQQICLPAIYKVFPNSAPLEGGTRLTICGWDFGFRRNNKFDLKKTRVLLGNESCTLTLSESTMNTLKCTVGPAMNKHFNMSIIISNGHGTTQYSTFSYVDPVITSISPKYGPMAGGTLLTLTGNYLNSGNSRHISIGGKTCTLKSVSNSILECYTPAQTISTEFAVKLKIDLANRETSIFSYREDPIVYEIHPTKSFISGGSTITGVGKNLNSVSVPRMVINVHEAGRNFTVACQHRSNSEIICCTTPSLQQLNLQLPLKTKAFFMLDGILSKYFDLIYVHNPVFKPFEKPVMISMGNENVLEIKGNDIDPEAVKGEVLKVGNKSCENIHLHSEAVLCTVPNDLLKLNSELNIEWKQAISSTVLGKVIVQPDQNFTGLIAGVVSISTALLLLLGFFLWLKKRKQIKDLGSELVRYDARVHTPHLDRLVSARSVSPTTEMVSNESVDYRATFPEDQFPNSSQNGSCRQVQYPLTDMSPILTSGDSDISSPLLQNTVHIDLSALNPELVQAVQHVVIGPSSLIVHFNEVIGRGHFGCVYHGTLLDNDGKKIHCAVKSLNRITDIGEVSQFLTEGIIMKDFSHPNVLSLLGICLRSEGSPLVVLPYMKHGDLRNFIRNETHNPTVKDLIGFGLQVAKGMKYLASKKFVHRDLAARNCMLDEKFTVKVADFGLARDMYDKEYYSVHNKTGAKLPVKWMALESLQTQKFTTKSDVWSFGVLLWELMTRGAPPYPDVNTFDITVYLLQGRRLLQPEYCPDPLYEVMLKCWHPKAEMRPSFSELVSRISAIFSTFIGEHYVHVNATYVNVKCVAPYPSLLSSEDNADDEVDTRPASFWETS

COc1ccc2cc3[n+](cc2c1OC)CCc1cc2c(cc1-3)OCO2 [BBR, Berberine]
IC50: 19.6 µM
